# According to patent US5124342A, “4-hydroxythiazoles as 5-lipoxygenase inhibitors” (Abbott Laboratories, priority 1990, dated 1992):
# pIC50: −log10 of the molar value.
# Biological target: T1, 5-lipoxygenase (Rattus norvegicus, UniProt P12527)
# T1 construct: homogenized RBL-1 cells; endogenous in cells; host or cells: RBL-1 cells (20,000×g supernatant of homogenate)
# T1 sequence (P12527 1-673): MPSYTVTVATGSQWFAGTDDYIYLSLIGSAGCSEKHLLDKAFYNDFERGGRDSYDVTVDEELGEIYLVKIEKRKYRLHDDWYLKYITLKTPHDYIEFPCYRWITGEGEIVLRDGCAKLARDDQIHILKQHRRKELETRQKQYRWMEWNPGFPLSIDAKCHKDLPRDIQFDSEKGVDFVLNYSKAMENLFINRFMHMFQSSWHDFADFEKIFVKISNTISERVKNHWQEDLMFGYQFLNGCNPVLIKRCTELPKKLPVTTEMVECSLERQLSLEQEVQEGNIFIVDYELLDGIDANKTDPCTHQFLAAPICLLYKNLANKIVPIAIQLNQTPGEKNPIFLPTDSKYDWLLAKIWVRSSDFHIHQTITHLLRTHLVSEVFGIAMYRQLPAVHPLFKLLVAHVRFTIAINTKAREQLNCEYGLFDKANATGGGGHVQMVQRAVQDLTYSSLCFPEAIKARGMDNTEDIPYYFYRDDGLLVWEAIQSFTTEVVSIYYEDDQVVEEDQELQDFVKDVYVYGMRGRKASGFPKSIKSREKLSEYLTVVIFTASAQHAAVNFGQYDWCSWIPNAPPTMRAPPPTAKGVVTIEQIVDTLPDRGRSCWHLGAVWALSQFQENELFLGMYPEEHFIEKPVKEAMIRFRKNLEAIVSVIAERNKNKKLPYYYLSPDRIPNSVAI
# Assay: 5-Lipoxygenase inhibition, 20,000×g supernatant of homogenized RBL-1 cells, radiolabeled arachidonic acid
# Type: biochemical
# Conditions: 5-lipoxygenase from RBL-1 20,000 × g supernatant; read-out: IC50 (95% CL)
# Procedure: Proc., Fed. Am. Soc. Exp. Biol. 1984, 43, […]. Reactions were initiated by the addition of radiolabeled arachidonic acid and terminated by acidification and ether extraction. Reaction products were separated from nonconvented substrate by thin layer chromatography and measured by liquid scintillation spectroscopy. Inhibition of 5-lipoxygenase activity was calculated as the ratio of the amounts of product formed in the presence and absence of inhibitor.
row,pIC50,SMILES
1,6.04,"CCCc1sc(-c2ccccc2)nc1OC(=O)OCC [Example 54, 2-Phenyl-[4-(carboethoxy)oxy]-5-propylthiazole]"
2,6.30,"Cc1sc(-c2ccccc2F)nc1O [Example 24, 2-(2-Fluorophenyl)-4-hydroxy-5-methylthiazole]"
3,6.12,"CCOC(=O)CCC(=O)Oc1nc(-c2ccccc2)sc1-c1ccccc1 [Example 53, 2-Phenyl-4-ethyl succinyloxy-5-phenylthiazole]"
4,6.28,"Oc1nc(-c2ccccc2)sc1-c1ccccc1 [Example 34, 2-Phenyl-4-hydroxy-5-phenylthiazole]"
5,6.24,"CCCc1sc(-c2ccccc2)nc1O [Example 36, 2-Phenyl-4-hydroxy-5-propylthiazole]"
6,6.02,"Cc1sc(-c2ccccc2)nc1O [Example 31, 2-Phenyl-4-hydroxy-5-methylthiazole]"
7,6.24,"Cc1sc(-c2ccc(Cl)cc2)nc1O [Example 11, 2-(4-Chlorophenyl)-4-hydroxy-5-methylthiazole]"
8,6.06,"COC(=O)c1ccc(-c2nc(O)c(C)s2)cc1 [Example 17, 2-(4-Carbomethoxyphenyl)-4-hydroxy-5-methylthiazole]"
9,6.29,"Cc1sc(-c2ccc(Br)cc2)nc1O [Example 10, 2-(4-Bromophenyl)-4-hydroxy-5-methylthiazole]"
10,6.18,"Cc1sc(-c2cccc(F)c2)nc1O [Example 25, 2-(3-Fluorophenyl)-4-hydroxy-5-methylthiazole]"
11,6.32,"Cc1sc(-c2cccc(Br)c2)nc1O [Example 26, 2-(3-Bromophenyl)-4-hydroxy-5-methylthiazole]"
12,6.05,"CC(=O)c1ccc(-c2nc(O)c(C)s2)cc1 [Example 18, 2-(4-Acetylphenyl)-4-hydroxy-5-methylthiazole]"
13,6.08,"CCc1sc(-c2ccccc2)nc1O [Example 35, 2-Phenyl-4-hydroxy-5-ethylthiazole]"
14,6.01,"Cc1sc(-c2ccc(C(=O)OCCc3ccccc3)cc2)nc1O [Example 13, 2-(4-Carbo-2-phenethoxyphenyl)-4-hydroxy-5-methylthiazole]"
15,6.46,"Cc1sc(-c2ccc(F)cc2)nc1O [Example 9, 2-(4-Fluorophenyl)-4-hydroxy-5-methylthiazole]"
16,6.15,"CCOC(=O)c1ccc(-c2nc(O)c(C)s2)cc1 [Example 23, 2-(4-Carboethoxyphenyl)-4-hydroxy-5-methylthiazole]"
17,6.09,"Cc1cccc(-c2nc(O)c(C)s2)c1Cl [Example 29, 2-(2-Chloro-3-methylphenyl)-4-hydroxy-5-methylthiazole]"
18,6.16,"Oc1nc(-c2ccccc2)sc1CCc1ccccc1 [Example 38, 2-Phenyl-4-hydroxy-5-phenethylthiazole]"
19,6.15,"Cc1sc(-c2ccc(C#N)cc2)nc1O [Example 20, 2-(4-Cyanophenyl)-4-hydroxy-5-methylthiazole]"
20,6.05,"COc1ccc2nc(-c3nc(O)c(C)s3)sc2c1 [Example 6, 2-[2-(6-Methoxybenzothiazolyl)]-4-hydroxy-5-methylthiazole]"
21,6.20,"Cc1ccc(-c2nc(O)c(C)s2)cc1 [Example 33, 2-(4-Methylphenyl)-4-hydroxy-5-methylthiazole]"

row,SMILES,pIC50
1,"CCCCc1sc(-c2ccccc2)nc1OC(C)=O [Example 67, 2-Phenyl-4-acetoxy-5-butylthiazole]",6.02
2,"COC(=O)c1ccc(-c2nc(OC(C)=O)c(C)s2)cc1 [Example 60, 2-(4-Carbomethoxyphenyl)-4-acetoxy-5-methylthiazole]",6.16

# Same assay, conditions: at 0.3 μM; RBL-1 20,000 × g supernatant; read-out: % Inhibition at μM Conc.
row,inhibition at 0.3 µM [%],SMILES
1,88,"COc1ccc(-c2nc(O)c(-c3ccccc3)s2)cc1 [Example 43, 2-(4-Methoxyphenyl)-4-hydroxy-5-phenylthiazole]"
2,83,"Oc1nc(-c2cccnc2)sc1-c1ccccc1 [Example 41, 2-(3-Pyridyl)-4-hydroxy-5-phenylthiazole]"

# Same assay, conditions: at 0.4 μM; RBL-1 20,000 × g supernatant; read-out: % Inhibition at μM Conc.
row,inhibition at 0.4 µM [%],SMILES
1,77,"CCOc1ccc(-c2nc(O)c(-c3ccccc3)s2)cc1 [Example 48, 2-(4-Ethoxyphenyl)-4-hydroxy-5-phenylthiazole]"
2,91,"Cc1ccc(-c2nc(O)c(-c3ccccc3)s2)cc1 [Example 46, 2-(4-Methylphenyl)-4-hydroxy-5-phenylthiazole]"
3,82,"Oc1nc(-c2ccc(F)cc2)sc1-c1ccccc1 [Example 47, 2-(4-Fluorophenyl)-4-hydroxy-5-phenylthiazole]"

row,SMILES,inhibition at 0.4 µM [%]
1,"CC(=O)Oc1nc(-c2ccccc2)sc1-c1ccccc1 [Example 50, 2-Phenyl-4-acetoxy-5-phenylthiazole]",88

# Same assay, conditions: at 0.5 μM; RBL-1 20,000 × g supernatant; read-out: % Inhibition at μM Conc.
row,SMILES,inhibition at 0.5 µM [%]
1,"CC(=O)Oc1nc(-c2ccc(C)cc2)sc1-c1ccccc1 [Example 62, 2-(4-Methylphenyl)-4-acetoxy-5-phenylthiazole]",93

# Same assay, conditions: at 0.75 μM; RBL-1 20,000 × g supernatant; read-out: % Inhibition at μM Conc.
row,SMILES,inhibition at 0.75 µM [%]
1,"CC(=O)Oc1nc(-c2ccc(-c3ccccc3)cc2)sc1-c1ccccc1 [Example 65, 2-Biphenyl-4-acetoxy-5-phenylthiazole]",82

# Same assay, conditions: at 1 μM; RBL-1 20,000 × g supernatant; read-out: % Inhibition at μM Conc.
row,SMILES,inhibition at 1 µM [%]
1,"CCCCCc1nc(OC(C)=O)c(CCC)s1 [Example 68, 2-Pentyl-4-acetoxy-5-propylthiazole]",79
